The values below come from ChEMBL document CHEMBL5325413, “Optimization of BAX trigger site activator BTSA1 with improved antitumor potency and in vitro ADMET properties” (Eur J Med Chem, 2023).

The source made the active and inactive calls. The calls are words filed in the database; no cut-off is given here.

Data set [1] relates to A549. The data set is described as follows: Induction of apoptosis in human A549 cells assessed as dead cells at 10 uM incubated for 48 hrs by Annexin V-FITC/PI staining based flow cytometry analysis (reference value: 0.535%). The format is functional.
Data set [2] has as its system A549. Briefly: Induction of apoptosis in human A549 cells assessed as total apoptotic cells at 10 uM incubated for 48 hrs by Annexin V-FITC/PI staining based flow cytometry analysis (reference value: 4.26%). The format is functional.
The subject of data set [3] is A549. Briefly: Induction of apoptosis in human A549 cells assessed as cell rounding at 2.5 to 10 uM incubated for 48 hrs by Hoechst 33342 staining based fluorescence microscopic analysis. Format: functional. The following applies: dose 2.5-10 µM.
The nature of data set [4]: Drug recovery in mouse liver microsomes at 100 uM incubated for 60 mins in absence of NADPH by LC-MS/MS analysis. Format: ADME, Microsome. The following applies: read-out: Drug recovery.
Data set [5] deals with A549. Briefly: Antiproliferative activity against human A549 cells assessed as cell growth inhibition incubated for 72 hrs by MTT assay. The format is functional. On the technique in general: Formazan colour is commonly taken as a measure of viable cells.
Data set [6] concerns A549. The data set is described as follows: Induction of cell cycle arrest in human A549 cells assessed as accumulation of cells at G0/G1 phase at 2.5 uM incubated for 48 hrs by RNase/PI staining based flow cytometry analysis (reference value: 54.82%). Format: functional. (In general: In flow cytometry, cells or beads pass a laser one at a time.)
Data set [7] can be described thus: Stability in rat plasma assessed as compound remaining measured after 60 mins. The note with it: read-out: Stability. Format: ADME, cell-free.
In data set [8] the test system is A549. Briefly: Induction of cell cycle arrest in human A549 cells assessed as accumulation of cells at S phase at 2.5 uM incubated for 48 hrs by RNase/PI staining based flow cytometry analysis (reference value: 26.01%). Format: functional.
Data set [9] deals with A549. Briefly: Induction of apoptosis in human A549 cells assessed as dead cells at 5 uM incubated for 48 hrs by Annexin V-FITC/PI staining based flow cytometry analysis (reference value: 0.535%). The format is functional.
In data set [10] the test system is A549. Briefly: Induction of apoptosis in human A549 cells assessed as total apoptotic cells at 10 uM incubated for 48 hrs by Annexin V-FITC/PI staining based flow cytometry analysis (reference value: 2.86%). The format is functional.
Data set [11] deals with A549. Briefly: Induction of apoptosis in human A549 cells assessed as formation of apoptotic bodies at 2.5 to 10 uM incubated for 48 hrs by Hoechst 33342 staining based fluorescence microscopic analysis. Format: functional, cell-based. The note with it: dose 2.5-10 µM.
The test system of a further data set is HCT-116. Briefly: Antiproliferative activity against human HCT-116 cells assessed as cell growth inhibition incubated for 72 hrs by MTT assay. The format is functional.
The test system of data set [12] is A549. The data set is described as follows: Antiproliferative activity against human A549 cells assessed as reduction in cell viability at 1 to 5 uM by MTT assay. The format is functional, cell-based. The note with it: dose 1-5 µM, time 24-72 hrs, TDE = time-dependent effect.
The test system of data set [13] is A549. The data set is described as follows: Induction of apoptosis in human A549 cells assessed as nuclear fragmentation at 2.5 to 10 uM incubated for 48 hrs by Hoechst 33342 staining based fluorescence microscopic analysis. Format: functional, cell-based. The following applies: dose 2.5-10 µM.
Data set [14] can be described thus: Metabolic stability in mouse liver microsomes assessed as parent compound remaining at 100 uM incubated for 60 mins in presence of NADPH by LC-MS/MS analysis. For orientation: Liver microsomes are vesicles of endoplasmic reticulum, rich in cytochrome P450 enzymes.
The subject of data set [15] is A549. The data set is described as follows: Induction of apoptosis in human A549 cells assessed as live cells at 10 uM incubated for 48 hrs by Annexin V-FITC/PI staining based flow cytometry analysis (reference value: 96.4%). The format is functional.
The subject of data set [16] is A549. Briefly: Induction of cell cycle arrest in human A549 cells assessed as accumulation of cells at G2/M phase at 5 uM incubated for 48 hrs by RNase/PI staining based flow cytometry analysis (reference value: 18.97%). The format is functional.
Data set [17] can be described thus: Metabolic stability in human liver microsomes assessed as parent compound remaining at 100 uM incubated for 60 mins in absence of NADPH by LC-MS/MS analysis.
A further data set relates to K562. The data set is described as follows: Antiproliferative activity against human K562 cells expressing BAX assessed as cell growth inhibition incubated for 72 hrs by trypan blue cell counting analysis. Format: functional.
For data set [18], the system named is A549. Briefly: Induction of apoptosis in human A549 cells assessed as increase in cleaved PARP level incubated for 48 hrs by Western blot analysis. The note with it: dose 5-40 µM. The format is functional, cell-based.
A short description of data set [19]: Stability in rat plasma assessed as compound remaining measured after 120 mins. Format: ADME, cell-free. The note with it: read-out: Stability.
The subject of data set [20] is A549. Briefly: Induction of apoptosis in human A549 cells assessed as upregulation of BAX translocation at 20 uM incubated for 24 hrs by Western blot analysis. Format: functional, cell-based.
Data set [21] concerns A549. Briefly: Induction of apoptosis in human A549 cells assessed as early apoptotic cells at 5 uM incubated for 48 hrs by Annexin V-FITC/PI staining based flow cytometry analysis (reference value: 1.09 %). Format: functional.
The target of another data set is T1, Cytochrome P450 1A2 (Homo sapiens, UniProt P05177).
T1 sequence (P05177 whole entry): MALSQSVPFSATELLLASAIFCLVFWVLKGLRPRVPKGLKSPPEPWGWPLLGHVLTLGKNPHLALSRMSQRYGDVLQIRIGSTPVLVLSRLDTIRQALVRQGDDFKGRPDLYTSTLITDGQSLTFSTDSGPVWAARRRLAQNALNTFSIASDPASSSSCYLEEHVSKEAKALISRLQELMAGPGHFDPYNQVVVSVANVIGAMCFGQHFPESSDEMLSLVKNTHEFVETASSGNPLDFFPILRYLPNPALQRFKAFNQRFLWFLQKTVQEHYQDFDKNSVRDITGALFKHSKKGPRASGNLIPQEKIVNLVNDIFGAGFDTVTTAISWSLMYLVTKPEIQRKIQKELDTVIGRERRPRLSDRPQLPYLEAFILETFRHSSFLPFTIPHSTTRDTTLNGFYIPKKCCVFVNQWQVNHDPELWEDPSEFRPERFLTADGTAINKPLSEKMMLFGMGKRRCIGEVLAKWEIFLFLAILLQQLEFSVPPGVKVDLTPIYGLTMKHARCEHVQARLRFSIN
The data set is described as follows: Inhibition of CYP1A2 in human liver microsomes using phenacetin as substrate prewarmed for 10 mins followed by NADPH addition and measured after 10 mins by LC-MS/MS analysis.

Take `CN(C)C1CCN(C(=O)c2ccc(N3N=C(c4ccccc4)/C(=N/Nc4ccccc4)C3=O)cc2)CC1`: the Activity with A549 [1] is reported as 0.583%; with A549 [2] it was 73.4%; in the data set on A549 [6], 58.46%; with A549 [8] it was 25.51%; in the data set on A549 [9] it was 0.284%; with A549 [10], 93.7%. The Activity entry is “Tde” with A549 [12]; 95.9% in the data set with A549 [15]; 8.3% in the data set on A549 [16]; “Dose-Dependent Effect” with A549 [18]; 10.6% with A549 [21]. The outcome in the data set with A549 [3], in the data set with A549 [11], with A549 [13] and in the data set with A549 [20] was Active. For the same compound, the remaining at 1 h, 100 µM in data set [4] was 96%; in data set [14], 74.1%; in data set [17] it was 102%. In addition, the GI50 (commonly the concentration giving 50% growth inhibition) in the data set on A549 [5] is 2150 nM; with HCT-116 it was 3310 nM; in the data set with K562, 1410 nM. Further, the remaining at 1 h in [7] stood at 94.8%. The remaining at 2 h in [19] is 92.9%. Moreover, on Cytochrome P450 1A2, the IC50 – broadly, the concentration that gives 50% inhibition – is more than 50000 nM.
